Laboratory results reported in BigSolDB 2.1.

O=Cc1ccc([N+](=O)[O-])cc1
solubility (mole fraction)
Settings	273.15 K	278.15 K	283.15 K	288.15 K	293.15 K	298.15 K	303.15 K	308.15 K	313.15 K
in 2-butanone	0.0367	0.0459	0.0567	0.0689	0.0836	0.102	0.122	0.147	0.174
in DMF	0.104	0.119	0.135	0.152	0.17	0.192	0.213	0.237	0.262
in acetone	0.0389	0.051	0.0662	0.0851	0.107	0.134	0.166	0.202	0.244
in acetonitrile	0.0262	0.0351	0.0471	0.0614	0.0801	0.102	0.13	0.161	0.199
in ethanol	0.0151	0.0177	0.0199	0.0232	0.0265	0.031	0.0366	0.0422	0.0498
in ethyl acetate	0.0321	0.0401	0.0488	0.0591	0.072	0.087	0.106	0.126	0.151
in isopropanol	0.00326	0.00399	0.00451	0.005	0.00589	0.00703	0.00843	0.00929	0.0111
in methanol	0.0263	0.0323	0.0398	0.0488	0.0596	0.0731	0.0884	0.108	0.13
in n-butanol	0.0118	0.0128	0.0144	0.0161	0.018	0.02	0.0225	–	0.0283
in n-propanol	0.014	0.0152	0.0168	0.019	0.0216	0.0243	0.0272	0.0312	0.0362
in toluene	0.0191	0.0239	0.0297	0.0366	0.0449	0.0547	0.0657	0.0802	0.0969
